Measured values as given in publication PMC8703873, “Structure and Activity of a Selective Antibiofilm Peptide SK-24 Derived from the NMR Structure of Human Cathelicidin LL-37” (Pharmaceuticals, 2021).
≈ marks a conversion by molar mass, not a printed value. Read-outs that look alike come from different tables or passages of the source. No end group written: not given here.

Columns and labels:
E. coli E423-17 = format: cell-based, Escherichia coli
Experimental: (§1) The antibiotic-resistant pathogens used in this study include the Gram-positive bacteria Enterococcus faecium V286-17 and Staphylococcus aureus USA300 LAC and the Gram-negative bacteria Klebsiella pneumoniae E406-17, Acinetobacter baumannii B28-16, Pseudomonas aeruginosa E411-17, and Escherichia coli E423-17. All bacteria were cultivated in tryptic soy broth (TSB) at 37 °C, 220 rpm.
(§2) The antibacterial activity of peptides was evaluated using a standard broth microdilution protocol with minor modifications. In brief, peptides were made at various concentrations, 10 μL per well in a 96-well polystyrene microplate. Logarithmic phase bacterial cultures (i.e., optical density (OD) at 600 nm ≈ 0.5) were diluted to 0.001 OD, and aliquots of 90 μL were added to each well. Untreated bacterial culture and medium were included as positive and negative controls, respectively. Plates were incubated at 37 °C overnight and read at 630 nm using a ChroMate Microplate Reader (Awareness Technology, Palm City, FL, USA). […] Our previously designed peptide 17BIPHE2 [32] was included as a positive control, and RI-10, a peptide without antibacterial activity in rich media, was utilized as a negative control.

[1] = HPLC retention time (measure of peptide hydrophobicity); format: physicochemical; conditions: chromatographic, Waters C8 symmetry hydrophobic column, as described in ref 34; used as indicator of peptide hydrophobicity
Excerpt: In the membrane-bound LL-37 structure determined by 3D NMR spectroscopy, a hydrophobic gap exists (Figure 1A). The location of a hydrophilic S9 on the hydrophobic surface of LL-37 splits the long helix into two hydrophobic domains (gold sticks). The SK-24 peptide we identified here corresponds to the long hydrophobic domain [26]. The amino acid sequence of SK-24, along with LL-37 and its derived antimicrobial peptides, is depicted in Figure 1B. Peptide parameters, including net charge, hydrophobic content, Boman index, GRAVY, hydrophobicity, and hydrophobic moment of each peptide, were calculated using online tools, such as the APD [8] and HeliQuest (Table 1). Except for the shortest RI-10 (net charge +3), LL-37 and its other derived peptides have net charges +5 or +6, above the average net charge (+3.3) of natural antimicrobial peptides registered in the APD [8, 35, 36]. Overall, the hydrophobic percentages (Pho) of these peptides calculated in the APD are proportional to the hydrophobicity and hydrophobic moment calculated by HeliQuest in Table 1. Of note, LL-37 has the highest net charge (+6) and Boman index but the lowest Pho%, GRAVY, and hydrophobic moment.
All peptides were chemically synthesized and purified to >95% (Genemed Synthesis, San Antonio, TX, USA). The quality of each peptide was determined based on mass spectrometry (MS) and high-performance liquid chromatography (HPLC). Peptide stock solutions were freshly made by solubilizing in autoclaved distilled water, and their concentrations were quantitated using UV spectroscopy based on the absorbance difference at 215 and 225 nm as described. Peptide retention time was measured on a Waters C8 symmetry hydrophobic column as described. Other chemicals were purchased from Sigma (St. Louis, MO, USA) unless specified.

S. aureus USA300 LAC [2] = assay: Membrane depolarization (DiBAC4(3)); format: cell-based, Staphylococcus aureus; conditions: DiBAC4(3) fluorescence; for Membrane depolarization ability (order, words): peptide 8 µM, similar trends at 16 and 32 µM
Experimental: The experiment was conducted as described. In brief, an overnight culture of S. aureus USA300 LAC was subcultured in a fresh TSB medium and grown to the exponential phase. Cells were spun using centrifugation and washed twice with PBS, and resuspended in twice the volume of PBS containing 25 mM glucose and incubated at 37 °C for 15 min. For membrane depolarization measurements, 500 nM (final concentration) of the dye DiBAC4 (3) (bis-(1,3- dibutylbarbituric acid) trimethine oxonol) (AnaSpec, San Jose, CA, USA) was added and vortexed gently. Aliquots of 90 μL of the energized bacteria solution were loaded to the wells, and the plate was fed into a FLUOstar Omega microplate reader. Fluorescence was read for 20 min at excitation and emission wavelengths of 485 and 520 nm, respectively, to get dye normalization. Then 10 μL of diluted peptide solutions were added and gently mixed. Fluorescence readings were recorded for 40 min, where Triton X-100 (0.1%) was used as a positive control.

[3] = tested on: S. aureus USA300 LAC preformed biofilms; assay: Disruption of preformed biofilms (XTT); format: cell-based, Staphylococcus aureus; conditions: for Antibiofilm effect on 24 h preformed biofilms: 24 h preformed biofilms of S. aureus USA300, XTT
Experimental: (§3) The antibiofilm activities of peptides against the preformed biofilms of A. baumannii B28-16 and S. aureus USA300 LAC were evaluated as follows. Bacteria in the logarithmic growth phase were adjusted to a cell density of 10^5 colony forming unit (CFU)/mL. Two hundred microliter cells were seeded into each well of the 96-well plates. The plates were incubated at 37 °C to allow for the formation of biofilm for 24, 48, and 72 h, respectively. The planktonic cells were then removed, followed by a wash. The biofilms were then treated with 20 µL of 10× two-fold diluted peptides and 180 µL of fresh TSB media for 24 h at 37 °C. Cultures treated with water without peptide served as the positive control, and media treated with water was used as the negative control. To quantify the antibiofilm activity of the peptides, the XTT [2, 3-bis (2-methyloxy-4-nitro-5-sulfophenyl)-2H-tertazolium-5-carboxanilide] assay staining method was used to quantitate the live cells. Absorbance was read at 450 nm using a ChroMate microliter plate reader. The percentage biofilm growth for the peptide was plotted by assuming 100% biofilm growth in untreated bacterial control wells. Data were represented as mean ± standard deviation (SD). The data are statistically significant at p < 0.05. Plots were generated using GraphPad Prism v7 (GraphPad Software, San Diego, CA, USA).

S. aureus USA300 = format: cell-based, Staphylococcus aureus
Experimental: as §1, §2

A. baumannii B28-16 [4] = format: cell-based, Acinetobacter baumannii
Experimental: as §1, §2

P. aeruginosa E411-17 = format: cell-based, Pseudomonas aeruginosa; conditions: for MIC: E411-17
Experimental: as §1, §2

[5] = tested on: S. aureus USA300 LAC preformed biofilms; conditions: S. aureus USA300 LAC and other clinical strains (USA200, USA400, Mu50); cited from earlier work
Experimental: Here, we compared the antibiofilm activity of SK-24 with that of GF-17, GI-20, and 17BIPHE2 against the 24 h preformed biofilms of S. aureus USA300. […] Only SK-24 a ...

K. pneumoniae E406-17 = format: cell-based, Klebsiella pneumoniae; conditions: for MIC: E406-17
Experimental: as §1, §2

[6] = tested on: A. baumannii B28-16 preformed biofilms; assay: Disruption of preformed biofilms (XTT); format: cell-based, Acinetobacter baumannii; conditions: for Biofilm disruption: 72 h preformed biofilms, peptide 64 μM, highest concentration tested; for Disruption of 48 h biofilms: biofilms established for 48 h; for Disruption of 48 h biofilms / Reduction of 24 h biofilms: 24 h treatment; for Reduction of 24 h biofilms: biofilms established in 24 h
Experimental: as §3

Human red blood cells = assay: Hemolytic assay; format: cell-based; conditions: 1 h
Experimental: Human red blood cells (hRBCs, the UNMC Blood Bank) were washed three to five times with saline (Fisher Scientific, Waltham, MA, USA) at 800 g for 10 min each time, until the supernatant was clear. The supernatant was discarded, and hRBCs were suspended in saline at a final density of 2%. Ninety microliters of hRBC suspensions were added to each well of 96-well plates containing 10 µL of 10× serially diluted peptides. After incubation at 37 °C for 1 h, the plates were centrifuged at 1500 rpm for 5 min. About 80 µL of the supernatant was carefully pipetted to a new 96-well microplate and read at 545 nm to measure the amount of hemoglobin released. The positive control was 1% Triton X-100, and the negative control was saline. The percentage of hRBC lysis was calculated based on the hemoglobin released.

E. faecium V284-17 = format: cell-based, Enterococcus faecium
S. aureus USA300 LAC [7] = assay: Membrane permeabilization (propidium iodide); format: cell-based, Staphylococcus aureus; conditions: peptide 8 µM; propidium iodide fluorescence, 2 h, PBS, 37 °C
Experimental: (§4) Membrane permeabilization was evaluated as described. In brief, bacteria were inoculated and grown overnight. A second inoculation was made and let bacteria grow to the exponential phase. Bacteria were then spun, washed, and resuspended in the same volume of PBS. A series of peptide solutions (10×) was made via two-fold dilution in a 96-well plate (10 µL each). All wells were aliquoted with 2 µL of propidium iodide (20 µM), followed by adding 88 µL of S. aureus USA300 or A. baumannii B28-16 (OD600 ~0.11 in PBS). The plate was incubated at 37 °C with continuous shaking at 100 rpm in a FLUOstar Omega microplate reader (BMG Labtech Inc., Cary, NC, USA). Fluorescence was recorded every 5 min for 2 h with excitation and emission wavelengths of 485 and 620 nm. The data were analyzed by the vendor’s software using averaged values from duplicated experiments.

A. baumannii B28-16 [8] = assay: Membrane permeabilization (propidium iodide); format: cell-based, Acinetobacter baumannii; conditions: peptide 16 µM; propidium iodide fluorescence, 2 h, PBS, 37 °C
Experimental: as §4

[9] = 2% hRBCs in saline, 37 °C, tested 12.5–200 µM

| Compound | MIC (E. coli E423-17) | tHPLC (HPLC retention time) [1] | Membrane depolarization ability (order, words) (S. aureus USA300 LAC [2]) | Antibiofilm effect on 24 h preformed biofilms [3] | MIC (S. aureus USA300) | MIC (A. baumannii B28-16 [4]) | MIC (P. aeruginosa E411-17) | Disruption of 24 h preformed biofilms (words, found previously) [5] | MIC (K. pneumoniae E406-17) | Biofilm disruption [6] | Disruption of 48 h biofilms [6] | Reduction of 24 h biofilms [6] | HC50 (50% hemolytic concentration) (Human red blood cells; red cells of human) | MIC (E. faecium V284-17; V284-17) | Membrane permeation (S. aureus USA300 LAC [7]) | other results |
| --- | --- | --- | --- | --- | --- | --- | --- | --- | --- | --- | --- | --- | --- | --- | --- | --- |
| GFKRIVQRIKDFLRNLV-NH2 (C-terminus assumed) [GF-17] | 16 µM | 12.197 min | GI-20 > 17BIPHE2 > GF-17~SK-24 > LL-37 | antibiofilm effect in a dose-dependent manner | 2 to 4 µM | 4 µM | 16 µM | highly effective | >32 µM | 30–50% | dose-dependent biofilm disruption | dose-dependent manner | ~ 175 µM | 2 µM |  |  |
| GIKEFKRIVQRIKDFLRNLV-NH2 [GI-20] | 32 µM | 12.681 min | GI-20 > 17BIPHE2 > GF-17~SK-24 > LL-37 | antibiofilm effect in a dose-dependent manner | 2 to 4 µM | 8 µM | >32 µM |  | >32 µM | 30–50% | only worked at 64 μM | dose-dependent manner | ~ 160 µM | 2 µM | more powerful | Membrane permeation (A. baumannii B28-16 [8]): superior to SK-24 |
| CC[C@H](C)[C@H](NC(=O)[C@H](CCCCN)NC(=O)[C@H](CCC(=O)O)NC(=O)[C@H](CCCCN)NC(=O)[C@H](CO)NC(=O)[C@H](CCCCN)NC(=O)[C@H](CCCNC(=N)N)NC(=O)[C@H](Cc1ccccc1)NC(=O)[C@H](Cc1ccccc1)NC(=O)[C@H](CC(=O)O)NC(=O)CNC(=O)[C@H](CC(C)C)NC(=O)[C@@H](N)CC(C)C)C(=O)NCC(=O)N[C@@H](CCCCN)C(=O)N[C@@H](CCC(=O)O)C(=O)N[C@@H](Cc1ccccc1)C(=O)N[C@@H](CCCCN)C(=O)N[C@@H](CCCNC(=N)N)C(=O)N[C@H](C(=O)N[C@H](C(=O)N[C@@H](CCC(N)=O)C(=O)N[C@@H](CCCNC(=N)N)C(=O)N[C@H](C(=O)N[C@@H](CCCCN)C(=O)N[C@@H](CC(=O)O)C(=O)N[C@@H](Cc1ccccc1)C(=O)N[C@@H](CC(C)C)C(=O)N[C@@H](CCCNC(=N)N)C(=O)N[C@@H](CC(N)=O)C(=O)N[C@@H](CC(C)C)C(=O)N[C@H](C(=O)N1CCC[C@H]1C(=O)N[C@@H](CCCNC(=N)N)C(=O)N[C@H](C(=O)N[C@@H](CCC(=O)O)C(=O)N[C@@H](CO)C(=O)O)[C@@H](C)O)C(C)C)[C@@H](C)CC)C(C)C)[C@@H](C)CC [LL-37] |  | 12.548 min | GI-20 > 17BIPHE2 > GF-17~SK-24 > LL-37 |  |  |  |  | neither LL-37 nor RI-10 was able to disrupt |  |  |  |  |  |  |  | Disruption of preformed biofilms ([6]; biofilms formed for 24, 48 and 72 h, peptide at 8, 16, 32 or 64 μM for 24 h): unable to disrupt; HC50 (50% hemolytic concentration) (Human red blood cells; [9]): ~ 175 µM; Hemolytic activity (Human red blood cells; [9]): no hemolysis below 100 µM; Hemolysis (Human red blood cells; peptide 200 µM, 2% hRBCs in saline, 37 °C, read at 545 nm): 70%; MIC (E. faecium V284-17; E. faecium V284-17, 100% TSB, 37 °C overnight, read at 630 nm): 32 µM (≈ 144 µg/mL) |
| SKEKIGKEFKRIVQRIKDFLRNLV-NH2 [SK-24] | 16 µM | 12.291 min | GI-20 > 17BIPHE2 > GF-17~SK-24 > LL-37 | antibiofilm effect in a dose-dependent manner |  |  | >32 µM |  | ≥32 µM | ~ 70% | dose-dependent biofilm disruption | dose-dependent manner | greater than 200 µM |  | weakly permeated | Membrane depolarization, dose dependence (S. aureus USA300 LAC [2]; peptide 4, 8, 16 and 32 µM): dose-dependent manner; Staphylococcal biofilm remaining (reduced to) ([3]; 24 h preformed biofilms, peptide 32 μM, relative to untreated control = 100%): ~ 25%; Effect on growth at 32 μM (P. aeruginosa E411-17; P. aeruginosa E411-17, peptide 32 μM): poor effect; Effect on growth at 32 μM (K. pneumoniae E406-17; K. pneumoniae E406-17, peptide 32 μM): poor effect |
